{"source": "patent US20160082021A1", "about": "“PHARMACEUTICAL COMPOSITION OF DOXYCYCLINE WITH REDUCED FOOD EFFECT” (SUN PHARMACEUTICAL INDUSTRIES LIMITED, priority 2014, published 2016)", "origin": "cited, not measured here", "conditions": "oral versus intravenous doses", "data": [{"molecule": "C[C@H]1c2cccc(O)c2C(=O)C2=C(O)[C@]3(O)C(=O)C(C(N)=O)=C(O)[C@@H](N(C)C)[C@@H]3[C@@H](O)[C@@H]21", "note": "[doxycycline]", "values": [{"measurement": "absorption for oral administration", "value": "73-77%"}]}]}
